Experimental data published in patent publication US20080033007A1, “Substituted Tetrahydroisoquinoline Compounds for Cancer Therapy” (priority 2002, published 2008).
Entries after “also recorded” stand apart in the source; their conditions may differ.

Columns and labels:
C6 glioma = assay: in vivo rat model: C6 glioma cells injected into brain, treatment by osmotic mini pump; conditions: rat hippocampus, 7 days treatment
From the text: Approximately 5×10^4 C6 glioma cells were transplanted into a rat brain via a cannula followed by treatment for seven days. Tumor cells are depicted by staining for beta galactosidase.
FIG. 2 is a graph depicting the maximum extent of tumor in a single section.
A rat model system was developed to examine the in vivo efficacy of the compounds of the present invention.
The first step was to produce a cell line with a marker gene. A rat C6 glioma cell line was selected and stably transfected with a β-galactosidase construct. These cells were cultured and prepared for injection into the brain of adult Sprague-Dawley rats to simulate in vivo tumor development.
The animals were anesthetized and a cannula was placed into the brain. Approximately 5×10^4 glioma cells were injected through the cannula. […] The mini osmotic pump delivered 1 μl/hr for 7 days. With the tubing used to connect the pump, there was approximately a 10 hour delay for the treatment to reach the brain.
The section with the largest extent of tumor visible in all of the cases was identified and the cross-sectional area of the tumor was measured.

[1] = system: MCF7, A549, HeLa, LnCap cancer cell lines; assay: anti-proliferative activity against cancer cell lines, 96 hr; format: cell-based; conditions: every type of cancer tested: brain, breast, lung epithelial, cervical, prostate cancer cell lines
Description: Cell proliferation was measured and EC50 values were estimated.

[2] = animal toxicity test, delivery into striatum by mini-osmotic pump; format: in vivo, rat; conditions: 5 μM into striatum, five days, Nissl stain; hydrochloride
Description: The drug was delivered directly into the striatum of rats at a concentration of 5 μM, two times greater than the estimated EC50 value. […] The rats were sacrificed, brain sections were investigated for any major tissue change in the brain. Brains were fixed in 4% paraformaldehyde, cut in sections and stained by the Nissl method.
The drug was administered into the striatum of rats at 5 μM, which is approximately two times greater than the estimated EC5) value. […] The rats were sacrificed and brain sections were investigated for any major tissue change in the brain. Brains were fixed in 4% paraformaldehyde, cut in sections, and stained by the Nissl method.

C6 rat glioma = assay: differential culture cytotoxicity assay, C6 glioma; conditions: comparison of IC50 values
Description: Normal cultured rat astrocytes and C6 rat glioma were used as a differential screen for a variety of 1,2,3,4-tetrahydroisoquinoline derivatives. […] To explore structure activity relationships (SAR) a number of 1,2,3,4-tetrahydroisoquinolines 2, 4, 5, 7, and 8 were synthesized and tested for antiglioma activity.
The astrocytes primary culture was derived from neonatal (4-8 days postpartum) rat pups as described by Geisert et al. The primary cultures were prepared as per McCarthy et al. Briefly, the rat pups were anesthetized on ice, decapitated, and the brains were removed. The cerebral cortex was removed, stripped of the meninges, and cut into small pieces of approximately 1 mm^2. The tissue was placed in 0.1% trypsin for 15 min and gently pipetted to produce a single cell suspension. The cell suspension was then rinsed in media and transferred to culture flasks. […]
The experimental treatment was the incubation of the cells with test compound for 96 h at 37° C., 5% CO2. The cells were fixed with 4% formaldehyde, stained with 0.1% cresylecth violet stain, and quantitated as per Wagner et a. […]
The cytotoxic character of each compound was reported as the percent survival, calculated as the average A560 for treated cells divided by A560 of untreated (negative control) cells, and expressed as a percentage. […]

[3] = system: primary cultured cortical astrocytes; assay: effect on primary cultured cortical astrocytes (Example 5); conditions: at EC50 concentrations for the C6 gliomas

Structure (SMILES): Cl.Oc1cc2c(cc1O)C(Cc1ccc(-c3ccccc3)cc1)NCC2 (racemic) [MMGS-155]
- pathology of normal brain tissue beneath treatment cannula (C6 glioma): Limited pathology
- LD50, killing of cancer cells in culture [1]: approximately 3 μM
- brain damage / tissue change [2]: did not show any sign of brain damage; also recorded: brain tissue appears normal
- cytotoxic activity relative to another compound (C6 rat glioma; listed as 1, hydrochloride): more potent; also recorded: at least two-fold higher potency
- cytotoxic activity relative to another compound (C6 rat glioma; listed as 1-(biphenyl-4-ylmethyl)-1,2,3,4-tetrahydroisoquinoline-6,7-diol, hydrochloride): increased relative potency
- destruction to astrocytes [3]: only minimal destruction to astrocytes
